Source: patent publication US8629144B2, “Polymorphic and hydrate forms, salts and process for preparing 6-{difluoro[6-(1-methyl-1H-pyrazol-4-yl)[1,2,4]triazolo[4,3-b]pyridazin-3-yl]methyl}quinoline” (Janssen Pharmaceutica NV, priority 2007, dated 2014)
Values after ≈ are worked out from the molar mass of the structure shown. Read-outs that look alike come from different tables or passages of the source.

Assays:
Type in all cases: physicochemical
[1] = Crystallographic stability of Form I on storage (TGA, DSC, XRPD, IR); set-up: key to IR: ±Ref: contain some small extra signals
Description: The stability of the crystal structure of polymorph Form I of the compound (I) was studied after storage of the compound in open conditions for a period of six weeks at room temperature (RT) under <5%, 56% and 75% relative humidity (RH) at 50° C., and at 40° C. and 75% RH.
The samples were analysed by TGA, DSC, XRPD and IR spectroscopy.

[2] = Slurry conversion on mixtures of Form III and Form I (XRPD); set-up: key to Polymorphic composition (XRPD) after slurry: Form I; *: low amount of product; details: for Polymorphic composition (XRPD) after slurry: overnight
Description: 30 mg of mixture of Form III and Form I and 0.25 ml solvent (2-propanol; or ethanol/water (8/2, v/v)) were placed in a vial. For each solvent, 2 vials were prepared and stored each at different temperatures (RT, 70° C.) overnight. After storage, the slurry was spread on a paper filter, the solid fractions were collected and dried 2 hours at RT. The polymorphic composition was measured using XRPD.

[3] = Adsorption and desorption of water at 25° C. (Form I)
Description: Adsorption and desorption of water at 25° C. at different conditions of relative humidity was investigated on about 10 mg Form I of compound of formula (I), by registering the weight change as a function of relative humidity.
During an initial drying step a weight loss of 0.05% was registered.

[4] = Chemical stability of Form I on storage (HPLC, visual inspection)
Description: Chemical stability of Form I was tested in different open storage conditions for periods of 1, 4 and 8 weeks: 40° C./75% RH; 50° C.; RT/<5% RH; RT/56% RH; RT/75% RH and 0.3da ICH high intensity light. The compound was analysed after storage by HPLC and by visual inspection.

[5] = Aqueous solubility of Forms I, III and hydrate at different pH
Description: Solubility of polymorph Forms I and III and the hydrate form of the compound of formula (I) was tested in aqueous conditions at different pH values.

[6] = Thermal conversions in DSC oven (XRPD)
Description: Form III or hydrate form were thermally treated in a DSC oven (heating rate 10° C./min) up to selected temperatures (isotherm for 1 min) using an open sample pan. The selected temperatures are for Form III: 110° C. and 170° C.; and for hydrate form: 70° C., 110° C. and 170° C. The polymorphic composition of the obtained fractions was measured by XRPD. Table 12 summarises XRPD patterns in DSC treated Form III. Table 13 summarises XRPD patterns in DSC treated hydrate

[7] = Stability of the hydrate form in aqueous suspension (XRPD, SEM); details: aqueous suspension 16 mg/ml
Description: Aqueous suspension of the compound of formula (I) 16 mg/ml was stored at about 4° C. up to 9 days. Samples were taken after 1, 2 and 9 days of storage. The suspensions were spread over a paper filter and dried at room temperature for 2 hours. The obtained materials were analysed by XRPD.
Moreover, the hydrate remained stable in the aqueous medium for at least 9 days (XRD not substantially changed).

[8] = six weeks open storage, 40° C./75% RH
[9] = six weeks open storage, RT/56% RH
[10] = six weeks open storage, RT/75% RH
[11] = six weeks open storage, RT/<5% RH

SMILES: Cn1cc(-c2ccc3nnc(C(F)(F)c4ccc5ncccc5c4)n3n2)cn1 [Form I, 6-{difluoro[6-(1-methyl-1H-pyrazol-4-yl)[1,2,4]triazolo[4,3-b]pyridazin-3-yl]methyl}quinoline]
- DSC Max ([1]; 0 days): 201.0 °C
- DSC ΔH ([1]; 0 days): 101 J/g
- IR ([1]; 0 days): Cryst., Ref
- TGA <100° C. ([1]; 0 days): 0.12%
- TGA <240° C. ([1]; 0 days): 0.36%
- XRD ([1]; 0 days): Cryst., Ref
- Crystallographic stability ([1]; after storage under the different conditions): crystallographically stable
- DSC Max [1, 8]: 200.5 °C
- DSC ΔH [1, 8]: 119 J/g
- IR [1, 8]: ~Ref (identical with Form I reference)
- TGA <100° C. [1, 8]: 0.33%
- TGA <240° C. [1, 8]: 0.48%
- XRD [1, 8]: ~Ref (identical with Form I reference)
- IR ([1]; six weeks open storage, 50° C.): ~Ref (identical with Form I reference)
- TGA <100° C. ([1]; six weeks open storage, 50° C.): 0.31%
- TGA <240° C. ([1]; six weeks open storage, 50° C.): 0.57%
- XRD ([1]; six weeks open storage, 50° C.): ~Ref (identical with Form I reference)
- DSC Max [1, 9]: 200.4 °C
- DSC ΔH [1, 9]: 120 J/g
- IR [1, 9]: ±Ref
- TGA <100° C. [1, 9]: 0.58%
- TGA <240° C. [1, 9]: 0.8%
- XRD [1, 9]: ~Ref (identical with Form I reference)
- DSC Max [1, 10]: 200.1 °C
- DSC ΔH [1, 10]: 121 J/g
- IR [1, 10]: ±Ref
- TGA <100° C. [1, 10]: 0.25%
- TGA <240° C. [1, 10]: 0.57%
- XRD [1, 10]: ~Ref (identical with Form I reference)
- DSC Max [1, 11]: 200.1 °C
- DSC ΔH [1, 11]: 124 J/g
- IR [1, 11]: ~Ref (identical with Form I reference)
- TGA <100° C. [1, 11]: 0.74%
- TGA <240° C. [1, 11]: 0.75%
- XRD [1, 11]: ~Ref (identical with Form I reference)
- Relative polymorph stability ([2]; from RT up to 70° C.): most stable polymorph
- Weight loss during initial drying step ([3]; about 10 mg): 0.05%
- Water adsorbed by dry product ([3]; depending on the atmospheric humidity): up to 0.5%
- Hygroscopic behaviour ([3]; different relative humidity): no hygroscopic behaviour
- HPLC Sum of impurities ([4]; 0.3da ICH light, 1 w): 0.55 w/w %
- Appearance ([4]; 0.3da ICH light, 1 week): slightly yellow
- HPLC Sum of impurities ([4]; 40° C./75% RH, 1 w): 0.51 w/w %
- Appearance ([4]; 40° C./75% RH, 1 week): slightly yellow
- HPLC Sum of impurities ([4]; 40° C./75% RH, 4 w): 0.66 w/w %
- Appearance ([4]; 40° C./75% RH, 4 weeks): slightly yellow
- HPLC Sum of impurities ([4]; 40° C./75% RH, 8 w): 0.54 w/w %
- Appearance ([4]; 40° C./75% RH, 8 weeks): slightly yellow
- HPLC Sum of impurities ([4]; 50° C., 1 w): 0.56 w/w %
- Appearance ([4]; 50° C., 1 week): slightly yellow
- HPLC Sum of impurities ([4]; 50° C., 4 w): 0.59 w/w %
- Appearance ([4]; 50° C., 4 weeks): slightly yellow
- HPLC Sum of impurities ([4]; 50° C., 8 w): 0.54 w/w %
- Appearance ([4]; 50° C., 8 weeks): slightly yellow
- HPLC Sum of impurities ([4]; RT/56% RH, 4 w): 0.53 w/w %
- Appearance ([4]; RT/56% RH, 4 weeks): slightly yellow
- HPLC Sum of impurities ([4]; RT/56% RH, 8 w): 0.53 w/w %
- Appearance ([4]; RT/56% RH, 8 weeks): slightly yellow
- HPLC Sum of impurities ([4]; RT/75% RH, 4 w): 0.53 w/w %
- Appearance ([4]; RT/75% RH, 4 weeks): slightly yellow
- HPLC Sum of impurities ([4]; RT/75% RH, 8 w): 0.77 w/w %
- Appearance ([4]; RT/75% RH, 8 weeks): slightly yellow
- HPLC Sum of impurities ([4]; RT/<5% RH, 4 w): 0.62 w/w %
- Appearance ([4]; RT/<5% RH, 4 weeks): slightly yellow
- HPLC Sum of impurities ([4]; RT/<5% RH, 8 w): 0.53 w/w %
- Appearance ([4]; RT/<5% RH, 8 weeks): slightly yellow
- HPLC Sum of impurities ([4]; Reference, 1 w): 0.54 w/w %
- Appearance ([4]; Reference, 1 week): slightly yellow
- Chemical stability ([4]; all investigated conditions): chemically stable
- Solubility ([5]; aqueous medium, simulated gastric fluid, thermodynamic from solid, 0.01 HCl, read-out: Solubility): 100 µg/mL (≈ 265 µM)
- Solubility ([5]; aqueous medium, simulated gastric fluid, thermodynamic from solid, 0.1 HCl, read-out: Solubility): 1300 µg/mL (≈ 3450 µM)
- Solubility ([5]; pH2): 430 µg/mL (≈ 1140 µM)
- Solubility ([5]; pH4): 5 µg/mL (≈ 13.3 µM)
- Solubility ([5]; pH6): 3 µg/mL (≈ 7.95 µM)
- Solubility ([5]; pH8): 4 µg/mL (≈ 10.6 µM)
- Solubility ([5]; pH10): 3 µg/mL (≈ 7.95 µM)

SMILES: Cn1cc(-c2ccc3nnc(C(F)(F)c4ccc5ncccc5c4)n3n2)cn1 [hydrate, 6-{difluoro[6-(1-methyl-1H-pyrazol-4-yl)[1,2,4]triazolo[4,3-b]pyridazin-3-yl]methyl}quinoline]
- XRPD measured composition ([6]; DSC treated hydrate, up to 70° C.): hydrate + Form III
- XRPD measured composition ([6]; DSC treated hydrate, up to 110° C.): Form III
- XRPD measured composition ([6]; DSC treated hydrate, up to 170° C.): mainly Form I
- XRPD measured composition ([6]; starting hydrate): hydrate
- Time hydrate remained stable in the aqueous medium (XRD not substantially changed) ([7]; about 4° C.): at least 9 days
- Solubility ([5]; 0.01 HCl): 56 µg/mL
- Solubility ([5]; 0.1 HCl): 810 µg/mL
- Solubility ([5]; pH2): 65 µg/mL
- Solubility ([5]; pH4): 2 µg/mL
- Solubility ([5]; pH6): 1 µg/mL
- Solubility ([5]; pH8): 1 µg/mL
- Solubility ([5]; pH10): 1 µg/mL

SMILES: Cn1cc(-c2ccc3nnc(C(F)(F)c4ccc5ncccc5c4)n3n2)cn1 [mixture of Form III and Form I]
- Polymorphic composition (XRPD) after slurry ([2]; 2-propanol, 70° C.): I
- Polymorphic composition (XRPD) after slurry ([2]; 2-propanol, RT): I
- Polymorphic composition (XRPD) after slurry ([2]; ethanol/water (8/2, v/v), 70° C., low amount of product): I*
- Polymorphic composition (XRPD) after slurry ([2]; ethanol/water (8/2, v/v), RT): I
- XRD patterns of the stored suspensions ([7]; 4° C., 1 day, 2 days and 9 days): compatible with those of the hydrate form
